Type in all cases: biochemical
One assay addresses T1, MMP-2 (Homo sapiens, UniProt P08253).
T1 construct: purchased R&D Systems 902-MP
T1 sequence (P08253 110-660): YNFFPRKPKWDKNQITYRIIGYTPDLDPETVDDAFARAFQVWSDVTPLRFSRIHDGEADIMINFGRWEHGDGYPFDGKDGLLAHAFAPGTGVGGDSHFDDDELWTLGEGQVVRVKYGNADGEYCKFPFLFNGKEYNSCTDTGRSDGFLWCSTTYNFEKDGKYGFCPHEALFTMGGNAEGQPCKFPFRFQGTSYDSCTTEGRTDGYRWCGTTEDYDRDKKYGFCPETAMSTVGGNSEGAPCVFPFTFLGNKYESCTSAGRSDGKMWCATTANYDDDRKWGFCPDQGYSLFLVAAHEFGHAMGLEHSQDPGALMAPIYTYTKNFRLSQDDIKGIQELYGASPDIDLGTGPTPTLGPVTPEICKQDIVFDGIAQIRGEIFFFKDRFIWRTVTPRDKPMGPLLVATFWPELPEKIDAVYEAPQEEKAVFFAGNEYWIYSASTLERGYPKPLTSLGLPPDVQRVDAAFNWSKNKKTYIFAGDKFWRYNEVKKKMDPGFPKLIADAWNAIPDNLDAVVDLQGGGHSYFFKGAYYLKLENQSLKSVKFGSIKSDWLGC
Nature of the assay: In vitro MMP-2 inhibition test. The source says: (§1) The MMP-mediated amidolytic cleavage of a suitable peptide substrate leads to an increase in fluorescent light here too. The signal intensity of the fluorescent light is directly proportional to the enzyme activity. The active concentration of a test compound at which half the enzyme is inhibited (50% signal intensity of the fluorescent light) is reported as the IC50 value.
(§2) Recombinant MMP-2 (from R&D Systems, 902-MP) is chemically activated in accordance with the manufacturer's instructions using APMA. 1 μl of the test compound to be analysed (as a solution in DMSO, suitable concentrations, for example, 1 nM to 30 μM) is pipetted into 24 μl of activated enzyme (final concentration, for example, 2 nM) in reaction buffer (50 mM Tris/HCl pH 7.5, 10 mM CaCl2, 150 mM NaCl, 0.05% Brij®-35) in a white 384-hole microtiter plate (MTP). The enzymatic reaction is started by adding the intramolecularly quenched Mca-Pro-Leu-Gly-Leu-Dpa(Dnp)-Ala-Arg-NH2 substrate (final concentration, for example, 10 μM; R&D Systems, ES-001), so as to result in a total test volume of 50 μl. The course of the MMP-2 reaction is measured by measuring the fluorescence intensity (excitation 320 nm, emission 410 nm) over a suitable period of time (for example over 120 min at a temperature of 32° C.).

The target of the next assay is T2, MMP-7 (Homo sapiens, UniProt P09237).
T2 construct: purchased R&D Systems 907-MP
T2 sequence (P09237 95-267): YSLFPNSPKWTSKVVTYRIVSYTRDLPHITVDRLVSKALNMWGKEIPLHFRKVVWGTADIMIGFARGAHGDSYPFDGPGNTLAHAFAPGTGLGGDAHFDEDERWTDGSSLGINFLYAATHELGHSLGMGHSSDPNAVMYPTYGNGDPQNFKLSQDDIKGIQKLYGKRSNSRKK
Nature of the assay: In vitro MMP-7 inhibition test.
Description: as §1
as §2, with “Recombinant MMP-7” for “Recombinant MMP-2”, “Systems, 907-MP)” for “Systems, 902-MP)”, “example, 0.5” for “example, 2”, “[…]” for “50 μl.”, “the MMP-7” for “the MMP-2”

The target in a further assay is T3, MMP-13 (Homo sapiens, UniProt P45452).
T3 construct: purchased R&D Systems 511-MP
Nature of the assay: In vitro MMP-13 inhibition test.
Description: as §1
as §2, with “Recombinant MMP-13” for “Recombinant MMP-2”, “Systems, 511-MP)” for “Systems, 902-MP)”, “example, 0.1” for “example, 2”, “50” for “50 μl.”, “the MMP-13” for “the MMP-2”

The target of another assay is T4, MMP-16 (Homo sapiens, UniProt P51512).
T4 construct: purchased R&D Systems 1785-MP
Nature of the assay: In vitro MMP-16 inhibition test.
Description: as §1
Recombinant MMP-16 (from R&D Systems, 1785-MP) is enzymatically activated in accordance with the manufacturer's instructions using recombinant furin (from R&D Systems, 1503-SE). 1 μl of the test compound to be analysed (as a solution in DMSO, suitable concentrations e.g. 1 nM to 30 μM) is pipetted into 24 μl of activated enzyme (final concentration e.g. 1 nM) in reaction buffer (50 mM Tris/HCl pH 7.5, 10 mM CaCl2, 150 mM NaCl, 0.05% Brij®-35) in a white 384-hole microtiter plate (MTP). The enzymatic reaction is started by adding the intramolecularly quenched Mca-Lys-Pro-Leu-Gly-Leu-Dpa(Dnp)-Ala-Arg-NH2 substrate (final concentration, for example, 5 μM; R&D Systems, ES-010), so as to result in a total test volume of 50 The course of the MMP-16 reaction is measured by measuring the fluorescence intensity (excitation 320 nm, emission 410 nm) over a suitable period of time (for example over 120 min at a temperature of 32° C.).

T4 sequence (P51512 120-564 limits assumed): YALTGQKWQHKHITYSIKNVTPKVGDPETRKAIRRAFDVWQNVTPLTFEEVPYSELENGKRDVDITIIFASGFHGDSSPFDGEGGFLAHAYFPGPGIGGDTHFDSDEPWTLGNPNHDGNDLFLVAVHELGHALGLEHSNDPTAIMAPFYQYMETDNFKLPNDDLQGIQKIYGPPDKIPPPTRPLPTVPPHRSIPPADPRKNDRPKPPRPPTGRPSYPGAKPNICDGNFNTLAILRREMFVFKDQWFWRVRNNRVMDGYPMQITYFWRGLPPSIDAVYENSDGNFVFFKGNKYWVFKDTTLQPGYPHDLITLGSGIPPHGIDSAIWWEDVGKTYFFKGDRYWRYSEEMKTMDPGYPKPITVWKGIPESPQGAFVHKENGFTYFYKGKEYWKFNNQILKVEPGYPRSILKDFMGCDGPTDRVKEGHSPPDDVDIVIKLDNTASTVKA

The IC50 is the concentration needed to halve the response being measured. High values mean lower potency, low ones higher potency. As for `O=C(O)[C@H]1[C@H](Cn2nnc3ccc(C(F)(F)F)cc3c2=O)CC[C@@H]1C(=O)c1ccc(OCC2CCCCC2)cc1` (racemic) [Example 40, (+/−)-(1RS,2RS,5SR)-2-[4-(Cyclohexylmethoxy)benzoyl]-5-{[4-oxo-6-(trifluoromethyl)-1,2,3-benzotriazin-3(4H)-yl]methyl}cyclopentanecarboxylic acid], the IC50 is 440 nM against MMP-2, 260 nM against MMP-7, 380 nM at MMP-13 and 920 nM on MMP-16.

On to “(+)-(1RS,2RS,5SR)-2-{4-[(3,4-Dichlorobenzyl)oxy]benzoyl}-5-{[4-oxo-6-(trifluoromethyl)-1,2,3-benzotriazin-3(4H)-yl]methyl}cyclopentanecarboxylic acid [Example 28]”, for which the IC50 at MMP-2 was found to be 700 nM; at MMP-7, 300 nM; at MMP-13, 620 nM; against MMP-16, 2200 nM.

On to `O=C(O)[C@H]1[C@H](Cn2nnc3ccccc3c2=O)CC[C@@H]1C(=O)c1ccc(OCc2cccc(Cl)c2)cc1` (racemic) [Example 2, (+/−)-(1RS,2RS,5SR)-2-{4-[(3-Chlorobenzyl)oxy]benzoyl}-5-[(4-oxo-1,2,3-benzotriazin-3(4H)-yl)methyl]cyclopentanecarboxylic acid], for which the IC50 against MMP-2 was found to be 290 nM; at MMP-7, 5300 nM; against MMP-13, 400 nM; against MMP-16 it was 1000 nM.

On to `Cc1cccc(COc2ccc(C(=O)[C@H]3CC[C@@H](Cn4nnc5ccc(C)cc5c4=O)[C@@H]3C(=O)O)cc2)c1` (racemic) [Example 97, (+/−)-(1RS,2RS,5SR)-2-{4-[(3-Methylbenzyl)oxy]benzoyl}-5-[(6-methyl-4-oxo-1,2,3-benzotriazin-3(4H)-yl)methyl]cyclopentanecarboxylic acid], for which the IC50 on MMP-2 was 2300 nM; against MMP-7, 1500 nM; on MMP-13 it was 1500 nM; against MMP-16, 4500 nM.

Turning to `CCCCCCOc1ccc(C(=O)[C@@H]2CC[C@H](Cn3nnc4ccc(C)cc4c3=O)[C@H]2C(=O)O)cc1` (single isomer, unassigned) [Example 121, (+)-(1RS,2RS,5SR)-2-[4-(Hexyloxy)benzoyl]-5-[(6-methyl-4-oxo-1,2,3-benzotriazin-3(4H)-yl)methyl]cyclopentanecarboxylic acid], the concentration for half-maximal inhibition (IC50) worked out at 280 nM against MMP-2, 350 nM at MMP-7, 300 nM against MMP-13 and 1900 nM on MMP-16.

For `O=C(O)[C@H]1[C@H](Cn2nnc3ccc(C(F)(F)F)cc3c2=O)CC[C@@H]1C(=O)c1ccc(SCc2ccc(Cl)c(Cl)c2)cc1` (racemic) [Example 79, (+/−)-(1RS,2RS,5SR)-2-{4-[(3,4-Dichlorobenzyl)sulphanyl]benzoyl}-5-{[4-oxo-6-(trifluoromethyl)-1,2,3-benzotriazin-3(4H)-yl]methyl}cyclopentanecarboxylic acid], the IC50 against MMP-2 is 4000 nM; on MMP-7, 1300 nM; against MMP-13, 2700 nM; on MMP-16 it was greater than 40000 nM.

As for `O=C(O)[C@@H]1[C@@H](Cn2nnc3ccc(C(F)(F)F)cc3c2=O)CC[C@H]1C(=O)c1ccc(SCc2cccc(Cl)c2)cc1` (single isomer, unassigned) [Example 77, (+)-(1RS,2RS,5SR)-2-{4-[(3-Chlorobenzyl)sulphanyl]benzoyl}-5-{[4-oxo-6-(trifluoromethyl)-1,2,3-benzotriazin-3(4H)-yl]methyl}cyclopentanecarboxylic acid], the IC50 on MMP-2 was determined as 970 nM; on MMP-7, 150 nM; against MMP-13, 770 nM; against MMP-16, 3800 nM.

As to `CCCCCSc1ccc(C(=O)[C@H]2CC[C@@H](Cn3nnc4ccc(C(F)(F)F)cc4c3=O)[C@@H]2C(=O)O)cc1` (racemic) [Example 88, (+/−)-(1RS,2SR,5RS)-2-{[4-Oxo-6-(trifluoromethyl)-1,2,3-benzotriazin-3(4H)-yl]methyl}-5-[4-(pentylsulphanyl)benzoyl]cyclopentanecarboxylic acid], the IC50 is 190 nM on MMP-2, 120 nM at MMP-7, 230 nM against MMP-13 and 670 nM at MMP-16.

Regarding `Cc1ccc2nnn(C[C@H]3CC[C@@H](C(=O)c4ccc(OCc5cccc(Cl)c5)cc4)[C@@H]3C(=O)O)c(=O)c2c1` (single isomer, unassigned) [Example 104, (+)-(1RS,2RS,5SR)-2-{4-[(3-Chlorobenzyl)oxy]benzoyl}-5-[(6-methyl-4-oxo-1,2,3-benzotriazin-3(4H)-yl)methyl]cyclopentanecarboxylic acid], the IC50 on MMP-2 was determined as 220 nM; at MMP-7, 270 nM; against MMP-13, 200 nM; against MMP-16 it was 540 nM.

In the case of `Cc1ccc2nnn(C[C@H]3CC[C@@H](C(=O)c4ccc(OCc5cccc(OC(F)(F)F)c5)cc4)[C@@H]3C(=O)O)c(=O)c2c1` (single isomer, unassigned) [Example 110, (+)-(1RS,2SR,5RS)-2-[(6-Methyl-4-oxo-1,2,3-benzotriazin-3(4H)-yl)methyl]-5-(4-{[3-(trifluoromethoxy)benzyl]oxy}benzoyl)cyclopentanecarboxylic acid], the IC50 against MMP-2 was 850 nM; against MMP-7, 1200 nM; against MMP-13, 260 nM; on MMP-16, 2100 nM.

For the origin of these results see patent US20170022171A1, “2,5-DISUBSTITUTED CYCLOPENTANECARBOXYLIC ACIDS AND THEIR USE” (Bayer Pharma Aktiengesellschaft, priority 2014, published 2017).
